# Data taken from patent US12077495B2 (priority 2018, dated 2024).
# Assays:
# CAMK2A = target: T1, CAMK2A (Rattus norvegicus, UniProt P11275); experiment: biochemical; assay type: binding
# T1 construct: host or cells: HEK293T
# Procedure: Cells were transfected with rat CAMK2A (Origene construct RR201121) or rat CAMK2B (Origene construct RR200520) using PolyFect (Qiagen, West Sussex, UK) according to the manufacturer's protocol. Whole cell homogenates were prepared 48 hr post-transfection by washing the cells with ice-cold 1×PBS and harvesting by scraping. Cells were collected and centrifuged for 10 min at 1000×g. Cell pellets were resuspended in ice-cold 1×PBS and homogenized using 2×1 mm zirkonium beads in a bullet blender for 20 s at max speed (NextAdvance, NY, USA). Homogenates were cleared by centrifugation (10 min, 4° C., 14.000×g). Protein concentration was determined using the Bradford protein assay. 150-200 μg protein was incubated with 5 nM ^3H-A and test compound in 1 ml total volume for 1 hr at 0-4° C. […] Proteins were then precipitated by addition of ice-cold acetone (4× of the assay volume), vortexing and incubation at −20° C. for 1 hr. Proteins were filtrated rapidly through GF/C unifilters (Whatman) and washed. The dried filters were added scintillation liquid and radioactivity measured on a Tricarb 2100 Scintillation counter (Packard).
# A) Principle of photoaffinity labelling workflow. […] After introduction of biotin through a Staudinger-Bertozzi ligation to EZ-Link™ Phosphine-PEG3-Biotin (ThermoFisher Scientific), the biotin-labelled proteins were affinity-purified and subjected to LC-MS/MS analysis. […] C)^3H-A binding to cortical membranes from CAMK2A and CAMK2B knock-out mouse brains.
# Human/rat CAMK2A expressed in HEK cells was assayed in an in-house established ^3H-A filtration binding assay performed on whole cell lysates of CAMK2A-transfected HEK293T cells.
# [1] = target: T2, specific GHB sites (high-affinity GHB binding site) (Rattus norvegicus, UniProt P11275); experiment: biochemical; details: pH 6
# T2 construct: using crude synaptic membranes prepared from rat cortex; from tissue; host or cells: rat cortex, crude synaptic membranes
# [2] = peripheral administration; cited from earlier work
# rodents = experiment: Observation of acute toxicity or sedation in rodents; assay type: in vivo; details: doses as high as 500 mg/kg
# CAMK2B = target: T3, CAMK2B (Rattus norvegicus, UniProt P08413); experiment: 3H-A binding to recombinant CAMK2B expressed in HEK293T cells; details: HEK293T whole cell homogenate
# T3 construct: host or cells: HEK293T
# Procedure: HEK293T were cultured using standard conditions, using Dulbecco's modified Eagle Medium with GlutaMax, 10% fetal bovine serum and 1% penicillin-streptomycin, and incubated at 37° C. in a humidified atmosphere of […] and 5% CO2. Cells were transfected with rat CAMK2A (Origene construct RR201121) or rat CAMK2B (Origene construct RR200520) using PolyFect (Qiagen, West Sussex, UK) according to the manufacturer's protocol. Whole cell homogenates were prepared 48 hr post-transfection by washing the cells with ice-cold 1×PBS and harvesting by scraping. Cells were collected and centrifuged for 10 min at 1000×g. Cell pellets were resuspended in ice-cold 1×PBS and homogenized using 2×1 mm zirkonium beads in a bullet blender for 20 s at max speed (NextAdvance, NY, USA). Homogenates were cleared by centrifugation (10 min, 4° C., 14.000×g). Protein concentration was determined using the Bradford protein assay. 150-200 μg protein was incubated with 5 nM ^3H-A and test compound in 1 ml total volume for 1 hr at 0-4° C. […] Proteins were then precipitated by addition of ice-cold acetone (4× of the assay volume), vortexing and incubation at −20° C. for 1 hr. Proteins were filtrated rapidly through GF/C unifilters (Whatman) and washed. The dried filters were added scintillation liquid and radioactivity measured on a Tricarb 2100 Scintillation counter (Packard). […]
# [3] = target: T4, high-affinity forebrain binding sites (Mus musculus, UniProt P11798); experiment: Ex vivo 3H-A radioligand binding, autoradiography of mouse brain sections; assay type: in vivo, mice; details: 5 MBq per mouse i.p.; 30 min
# T4 construct: from tissue; host or cells: C57BL/6J mouse brain (hippocampus, cortex) after i.p. injection of 3H-A
# Procedure: ^3H-A was used to perform ex vivo binding to C57BL/6J mice. Thus, in a design with 5 mice per group, ^3H-A (5 MBq per mouse) was injected i.p. After 30 min, the brains were dissected and autoradiography performed.
# [4] = tested on: wild-type and GABAB receptor knock-out mice; experiment: Temperature recording (hypothermia) in mice; assay type: in vivo; details: 750 mg/kg i.p., 2 hrs
# Procedure: Mice were pre-treated with saline injections (0.9% saline) i.p. for 4 days prior to the experiment to minimize stress on the day of the experiment. Experiments were conducted in a quiet room, in which mice were left undisturbed for at least two hrs prior to the experiment. After the i.p. injections, mice were left in their home cages for two hrs, had core body temperature recorded, and were then euthanized. The core body temperature was measured rectally by a thermometer (model DM 852; ELLAB Instruments; Copenhagen, Denmark) via a lubricated thermistor probe (model PRA-22002-A, 2.2 mm diameter; ELLAB Instruments). Mice were held at the base of the tail and measured until a stable temperature measurement was obtained.
# By contrast, compound A had no effect on hypothermia in either wild-type or knock-out mice.
# [5] = tested on: GABAB(1) receptor knock-out mice; experiment: Glucose metabolism study, 14C-2-deoxyglucose autoradiography; assay type: in vivo; details: 200 mg/kg i.p., after 45 min
# T1 sequence (P11275 whole entry): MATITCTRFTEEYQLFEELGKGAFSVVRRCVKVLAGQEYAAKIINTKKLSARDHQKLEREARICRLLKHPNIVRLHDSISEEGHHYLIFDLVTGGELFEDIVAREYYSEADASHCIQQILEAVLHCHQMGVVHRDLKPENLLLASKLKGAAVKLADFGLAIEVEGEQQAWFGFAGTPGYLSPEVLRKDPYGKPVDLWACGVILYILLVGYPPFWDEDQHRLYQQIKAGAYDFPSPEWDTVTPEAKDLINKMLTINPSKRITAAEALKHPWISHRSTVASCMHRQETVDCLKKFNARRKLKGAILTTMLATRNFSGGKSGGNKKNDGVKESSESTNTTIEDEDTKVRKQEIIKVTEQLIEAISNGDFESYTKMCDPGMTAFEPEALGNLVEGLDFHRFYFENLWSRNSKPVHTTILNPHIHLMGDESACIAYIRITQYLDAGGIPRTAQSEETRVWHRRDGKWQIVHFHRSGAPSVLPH
# T2 sequence (P11275 whole entry): as above
# T4 sequence (P11798 whole entry): as the sequence (P11275 whole entry) above
# T3 sequence (P08413 whole entry): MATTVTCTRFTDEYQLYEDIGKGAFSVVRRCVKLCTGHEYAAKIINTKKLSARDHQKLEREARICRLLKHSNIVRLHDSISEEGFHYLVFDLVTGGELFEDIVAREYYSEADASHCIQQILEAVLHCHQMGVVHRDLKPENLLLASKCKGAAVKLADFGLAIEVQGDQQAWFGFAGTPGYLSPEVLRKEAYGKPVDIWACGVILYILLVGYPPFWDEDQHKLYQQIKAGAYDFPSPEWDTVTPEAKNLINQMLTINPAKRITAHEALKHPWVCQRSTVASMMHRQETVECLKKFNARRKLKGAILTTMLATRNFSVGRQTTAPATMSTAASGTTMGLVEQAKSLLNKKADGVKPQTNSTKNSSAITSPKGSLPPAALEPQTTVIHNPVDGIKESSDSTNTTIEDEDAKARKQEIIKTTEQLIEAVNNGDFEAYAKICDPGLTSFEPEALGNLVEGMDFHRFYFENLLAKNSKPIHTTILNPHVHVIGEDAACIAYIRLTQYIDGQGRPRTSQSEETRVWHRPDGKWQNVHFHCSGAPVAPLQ
smiles,measurement,setting,value
"O=C(O)/C=C1\CCCc2ccccc2C1O (stereo not drawn) [B, (E,RS)-6,7,8,9-tetrahydro-5-hydroxy-5H-benzocyclohept-6-ylidene acetic acid, reference compound]",Ki,CAMK2A; whole cell lysates of CAMK2A-transfected HEK293T cells,3.71 µM
same,Ki,[1],0.44 µM
O=C([O-])C1=CC(O)CC1.[Na+] (stereo not shown) [sodium salt of A],brain entry,[2],readily enters the brain
same,acute toxicity or sedation,rodents,no apparent observations of acute toxicity or sedation
[3H]C1(O)C=C(C(=O)O)CC1 (stereo not shown) [^3H-A],specific binding at CAMK2B,CAMK2B,no specific binding
same,specific binding to CAMK2A-transfected HEK293T whole cell homogenate,CAMK2A; non-specific: 1 mM GHB,87%
same,ex vivo specific binding in hippocampus and cortex vs cerebellum,[3],Significant specific binding levels
"O=C1CCCO1 [GBL, γ-butyrolactone]",effect on body temperature (hypothermia),[4],strong decreased in body temperature
same,"cerebral metabolic rate of glucose, hippocampus",[5]; saline 9.74,6.45 nCi/ROI/min
same,"cerebral metabolic rate of glucose, frontal cortex",[5]; saline 10.46,6.78 nCi/ROI/min
